# Source: BindingDB's records for doi:10.1021/jm0110901 (Carlsberg Laboratory, 2002)
# Target: Cysteine protease B CPB2.8ΔCTE (Leishmania mexicana)
# Test: Inhibition of Leishmania mexicana Cysteine protease B (CPB2.8deltaCTE) was obtained in a solution-phase assay
row,Compound,Ki
1,CC[C@H](C)[C@H](NC(=O)[C@H](Cc1ccccc1)NC[C@H](Cc1ccccc1)NC(=O)[C@@H](NC(=O)[C@@H]1CCCN1C(=O)[C@@H](N)CCCCN)C(C)C)C(=O)N[C@@H](CC1CCCCC1)C(=O)O,13 µM
2,CC[C@H](C)[C@H](NC[C@H](Cc1ccccc1)NC(=O)[C@H](Cc1cnc[nH]1)NC(=O)[C@H](CCC(N)=O)NC(=O)[C@@H](N)CC(=O)O)C(=O)N[C@H](C(=O)N[C@H](C(=O)N[C@@H](CCC(N)=O)C(=O)O)C(C)C)[C@@H](C)CC,30 µM
3,CC[C@H](C)[C@H](NC(=O)[C@H](CC(C)C)NC[C@H](Cc1ccccc1)NC(=O)CNC(=O)[C@H](CCCCN)NC(=O)[C@@H](N)CC(=O)O)C(=O)N[C@H](C(=O)N[C@@H](CCCCN)C(=O)O)C(C)C,18.6 µM
4,CC[C@H](C)[C@H](N)C(=O)N[C@H](C(=O)NCC(=O)N[C@H](CN[C@@H](Cc1ccc(O)cc1)C(=O)N[C@H](C(=O)N[C@H](C(=O)N[C@@H](C)C(=O)O)C(C)C)[C@@H](C)CC)Cc1ccccc1)[C@@H](C)O,53.3 µM
5,CC[C@H](C)[C@H](NC(=O)[C@H](C)NC(=O)[C@@H](N)CC1CCCCC1)C(=O)N[C@H](CN[C@@H](Cc1ccc(O)cc1)C(=O)N[C@@H](CCSC)C(=O)N[C@@H](Cc1ccc(O)cc1)C(=O)N[C@@H](Cc1ccc(O)cc1)C(=O)O)Cc1ccccc1,0.1 µM
6,CC[C@H](C)[C@H](NC(=O)[C@H](CCSC)NC(=O)[C@H](CO)NC(=O)[C@H](CC1CCCCC1)NC[C@H](Cc1ccccc1)NC(=O)[C@H](CC1CCCCC1)NC(=O)[C@H](CO)NC(=O)[C@@H](N)CC(=O)O)C(=O)O,10.1 µM
7,CC[C@H](C)[C@H](NC[C@H](Cc1ccccc1)NC(=O)[C@H](Cc1c[nH]cn1)NC(=O)[C@H](CCCCN)NC(=O)[C@@H](N)CC(=O)O)C(=O)N[C@H](C(=O)N[C@H](C(=O)N[C@@H](CCCCN)C(=O)O)C(C)C)[C@@H](C)CC,20 µM
8,CC[C@H](C)[C@H](N)C(=O)N[C@@H](CC(=O)O)C(=O)NCC(=O)N[C@@H](CCCCN)CN[C@@H](CC(C)C)C(=O)N[C@@H](Cc1ccc(O)cc1)C(=O)N[C@@H](C)C(=O)N1CCC[C@H]1C(=O)O [1-{2-[2-[2-(6-Amino-2-{2-[2-(2-amino-3-methyl-pentanoylamino)-3-carboxy-propionylamino]-acetylamino}-hexylamino)-4-methyl-pentanoylamino]-3-(4-hydroxy-phenyl)-propionylamino]-propionyl}-pyrrolidine-2-carboxylic acid],5.3 µM
9,CC[C@H](C)[C@H](NC(=O)[C@H](C)NC[C@H](Cc1ccccc1)NC(=O)[C@H](CCCNC(=N)N)NC(=O)[C@H](Cc1c[nH]c2ccccc12)NC(=O)[C@@H](N)CCSC)C(=O)N[C@H](C(=O)N[C@H](C(=O)O)[C@@H](C)O)[C@@H](C)CC [2-(2-{2-[2-(2-{2-[2-(2-Amino-4-methylsulfanyl-butyrylamino)-3-(1H-indol-3-yl)-propionylamino]-5-guanidino-pentanoylamino}-3-phenyl-propylamino)-propionylamino]-3-methyl-pentanoylamino}-3-methyl-pentanoylamino)-3-hydroxy-butyric acid],6.5 µM
10,CC[C@H](C)[C@H](N)C(=O)N[C@H](C(=O)N[C@H](C(=O)N[C@@H](CCCCN)CN[C@@H](C)C(=O)N[C@H](C(=O)N[C@@H](CC1CCCCC1)C(=O)N[C@H](C(=O)O)[C@@H](C)O)[C@@H](C)CC)[C@@H](C)O)C(C)C [2-(2-{2-[2-(6-Amino-2-{2-[2-(2-amino-3-methyl-pentanoylamino)-3-methyl-butyrylamino]-3-hydroxy-butyrylamino}-hexylamino)-propionylamino]-3-methyl-pentanoylamino}-3-cyclohexyl-propionylamino)-3-hydroxy-butyric acid],100 µM
11,CC[C@H](C)[C@H](NC(=O)[C@H](CC(C)C)NC[C@H](CCCNC(=N)N)NC(=O)CNC(=O)[C@H](CC1CCCCC1)NC(=O)[C@@H](N)C(C)C)C(=O)N[C@@H](Cc1cnc[nH]1)C(=O)N[C@@H](CC(=O)O)C(=O)O [2-[2-{2-[2-(2-{2-[2-(2-Amino-3-methyl-butyrylamino)-3-cyclohexyl-propionylamino]-acetylamino}-5-guanidino-pentylamino)-4-methyl-pentanoylamino]-3-methyl-pentanoylamino}-3-(3H-imidazol-4-yl)-propionylamino]-succinic acid],71.6 µM
12,C[C@H](NC[C@H](Cc1ccccc1)NC(=O)[C@H](CCCCN)NC(=O)[C@H](CCCCN)NC(=O)[C@@H](N)CC(=O)O)C(=O)N[C@@H](CC1CCCCC1)C(=O)NCC(=O)N[C@@H](CCCCN)C(=O)O [6-Amino-2-(2-{2-[2-(2-{6-amino-2-[6-amino-2-(2-amino-3-carboxy-propionylamino)-hexanoylamino]-hexanoylamino}-3-phenyl-propylamino)-propionylamino]-3-cyclohexyl-propionylamino}-acetylamino)-hexanoic acid],31.1 µM
13,CC[C@H](C)[C@H](NC(=O)[C@H](CC(N)=O)NC(=O)[C@H](Cc1ccccc1)NC[C@H](CCCCN)NC(=O)[C@H](CC1CCCCC1)NC(=O)[C@H](CC1CCCCC1)NC(=O)[C@@H](N)CC1CCCCC1)C(=O)N[C@@H](CCCCN)C(=O)O [6-Amino-2-(2-{2-[2-(6-amino-2-{2-[2-(2-amino-3-cyclohexyl-propionylamino)-3-cyclohexyl-propionylamino]-3-cyclohexyl-propionylamino}-hexylamino)-3-phenyl-propionylamino]-3-carbamoyl-propionylamino}-3-methyl-pentanoylamino)-hexanoic acid],6.3 µM
14,C[C@H](NC[C@H](CCCCN)NC(=O)[C@H](Cc1ccccc1)NC(=O)[C@H](CCCCN)NC(=O)[C@@H](N)CC(=O)O)C(=O)N[C@@H](CC1CCCCC1)C(=O)NCC(=O)N[C@@H](CCCCN)C(=O)O [6-Amino-2-(2-{2-[2-(6-amino-2-{2-[6-amino-2-(2-amino-3-carboxy-propionylamino)-hexanoylamino]-3-phenyl-propionylamino}-hexylamino)-propionylamino]-3-cyclohexyl-propionylamino}-acetylamino)-hexanoic acid],0.6 µM
15,NCCCC[C@H](NC(=O)[C@H](CC(N)=O)NC(=O)[C@H](Cc1ccccc1)NC(=O)[C@H](CO)NC[C@H](CCCN=C(N)N)NC(=O)[C@H](Cc1ccccc1)NC(=O)[C@H](CCCCN)NC(=O)[C@@H]1CCCN1)C(=O)O [6-Amino-2-[2-(2-{2-[2-(2-{6-amino-2-[(pyrrolidine-2-carbonyl)-amino]-hexanoylamino}-3-phenyl-propionylamino)-5-guanidino-pentylamino]-3-hydroxy-propionylamino}-3-phenyl-propionylamino)-3-carbamoyl-propionylamino]-hexanoic acid],8.8 µM
16,CC(C)C[C@H](NC[C@H](Cc1ccccc1)NC(=O)[C@H](Cc1cnc[nH]1)NC(=O)[C@H](CCCCN)NC(=O)[C@@H](N)CC(=O)O)C(=O)N[C@@H](CC(C)C)C(=O)N[C@H](C(=O)N[C@@H](CCCCN)C(=O)O)C(C)C [6-Amino-2-{2-[2-(2-{2-[2-[6-amino-2-(2-amino-3-carboxy-propionylamino)-hexanoylamino]-3-(3H-imidazol-4-yl)-propionylamino]-3-phenyl-propylamino}-4-methyl-pentanoylamino)-4-methyl-pentanoylamino]-3-methyl-butyrylamino}-hexanoic acid],1 µM
17,CSCC[C@H](NC(=O)[C@H](Cc1ccc(O)cc1)NC[C@H](Cc1ccccc1)NC(=O)[C@H](CC(C)C)NC(=O)[C@H](C)NC(=O)[C@@H](N)CC1CCCCC1)C(=O)N[C@@H](Cc1ccc(O)cc1)C(=O)N[C@@H](Cc1ccc(O)cc1)C(=O)O [ChaALF(CH2NH)YMYY],1.1 µM
18,H-AIWYWAAV-OH [2-(2-{2-[2-[2-[2-[2-(2-Amino-propionylamino)-3-methyl-pentanoylamino]-3-(1H-indol-3-yl)-propionylamino]-3-(4-hydroxy-phenyl)-propionylamino]-3-(1H-indol-3-yl)-propionylamino]-propionylamino}-propionylamino)-3-methyl-butyric acid],44.7 µM
